Drawing on US20210038607A1, “OXADIAZOLYLTHIOPHENE DERIVATIVES USEFUL AS HISTONE DEACETYLASE INHIBITORS” (Karus Therapeutics Limited, priority 2018, published 2021), this text covers IC50 for nine molecules.

For orientation: IC50 means the concentration at which inhibition is half-maximal.

One experiment concerns the target T1, Human HDAC9 (Homo sapiens, UniProt Q9UKV0).
T1 construct: amino acids 604-1066 with C-terminal His tag; His (C); host or cells: baculovirus expression system
Description: HDAC9 biochemical assay, class IIa-specific substrate. The settings on record: read-out: HDAC Isoform IC50 (nM) 9. In short, it runs like this:
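HDAC9 residues 604-1066 (C-terminal His tag, baculovirus-expressed) at 0.06 ng/ul with 50 μM class IIa substrate Boc-Lys(trifluoroacetyl)-AMC in Tris-HCl pH 8.0 buffer with BSA and 1% DMSO. 30 min at room temperature, then developer added; fluorescence read at 360/460 nm Ex/Em.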

The next experiment concerns the target T2, Human HDAC4 (Homo sapiens, UniProt P56524).
T2 construct: amino acids 627-1085 with N-terminal GST tag; GST (N); host or cells: baculovirus expression system
As to the kind of experiment: HDAC4 biochemical assay, class IIa-specific substrate. Conditions: read-out: HDAC Isoform IC50 (nM) 4. A digest of the protocol: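 Two-step fluorogenic read-out: deacetylated BOC-Lys(trifluoroacetyl)-AMC (50 μM) was digested by developer and measured at Ex/Em 360/460. Deacetylation by 0.004 ng/ul HDAC4 (aa 627-1085, N-terminal GST) ran 30 min at room temperature, pH 8.0 Tris buffer, 1 mg/mL BSA, 1% DMSO.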

The target of experiment [1] is T3, Complex of human HDAC3 and human NCOR2 (Homo sapiens, UniProt O15379).
T3 construct: full length with C-terminal His tag, MW=49.7 kDa; His (C); host or cells: baculovirus expression system (co-expressed)
As to the kind of experiment: HDAC3 biochemical assay, AMC-labeled peptide substrate. Conditions: read-out: HDAC Isoform IC50 (nM) 3. How it is done:
Activity against all zinc-dependent HDACs 1 to 11 was assessed by using an acetylated AMC-labeled peptide substrate. The substrate RHKK(Ac)AMC was used for HDAC1, HDAC2, HDAC3, HDAC6 and HDAC10; the substrate used for HDAC8 was RHK(Ac)K(Ac)AMC. Activity against the class IIa HDACs (HDAC4, 5, 7, 9) and HDAC11 was determined using a class IIa-specific substrate, BOC-Lys(trifluoroacetyl)-AMC (“Trifluoroacetyl Lysine”; see Lahm et al, 2007, PNAS, 104, 17335-17340). All assays were based on the AMC-labeled substrate and developer combination.
The protocol involved a two-step reaction: first, the substrate with the acetylated lysine side chain is incubated with a sample containing HDAC activity, to produce the deacetylated products, which are then digested in the second step by the addition of developer to produce the fluorescent signal proportional to the amount of deacetylated substrates.
Complex of human HDAC3 (GenBank Accession No. NM_003883), full length with C-terminal His tag, MW=49.7 kDa, and human NCOR2 (amino acid 395-489) (GenBank Accession No. NM_006312), N-terminal GST tag, MW=37.6 kDa, co-expressed in baculovirus expression system.
Assay Buffer: 50 mM Tris-HCl, pH8.0, 137 mM NaCl, 2.7 mM KCl, 1 mM MgC2. Before use, 1 mg/mL BSA and DMSO are added.
HDAC3: 0.1 ng/ul HDAC3 and 50 μM HDAC substrate are in the reaction buffer with 1% DMSO final. Incubate for 1 hour at 30° C.
Stage 1: Deacetylation of substrate by incubation of HDAC enzymes with compounds
Stage 2: Development by addition of Developer to digest the deacetylated substrate, and generate the fluorescent colour; Detection: 360/460 Ex/Em

Another experiment deals with T4, Recombinant human HDAC6 (Homo sapiens, UniProt Q9UBN7).
T4 construct: full length, MW=159 kDa; GST (N); host or cells: Sf9 insect cells (baculovirus)
T4 sequence (Q9UBN7 1-1215): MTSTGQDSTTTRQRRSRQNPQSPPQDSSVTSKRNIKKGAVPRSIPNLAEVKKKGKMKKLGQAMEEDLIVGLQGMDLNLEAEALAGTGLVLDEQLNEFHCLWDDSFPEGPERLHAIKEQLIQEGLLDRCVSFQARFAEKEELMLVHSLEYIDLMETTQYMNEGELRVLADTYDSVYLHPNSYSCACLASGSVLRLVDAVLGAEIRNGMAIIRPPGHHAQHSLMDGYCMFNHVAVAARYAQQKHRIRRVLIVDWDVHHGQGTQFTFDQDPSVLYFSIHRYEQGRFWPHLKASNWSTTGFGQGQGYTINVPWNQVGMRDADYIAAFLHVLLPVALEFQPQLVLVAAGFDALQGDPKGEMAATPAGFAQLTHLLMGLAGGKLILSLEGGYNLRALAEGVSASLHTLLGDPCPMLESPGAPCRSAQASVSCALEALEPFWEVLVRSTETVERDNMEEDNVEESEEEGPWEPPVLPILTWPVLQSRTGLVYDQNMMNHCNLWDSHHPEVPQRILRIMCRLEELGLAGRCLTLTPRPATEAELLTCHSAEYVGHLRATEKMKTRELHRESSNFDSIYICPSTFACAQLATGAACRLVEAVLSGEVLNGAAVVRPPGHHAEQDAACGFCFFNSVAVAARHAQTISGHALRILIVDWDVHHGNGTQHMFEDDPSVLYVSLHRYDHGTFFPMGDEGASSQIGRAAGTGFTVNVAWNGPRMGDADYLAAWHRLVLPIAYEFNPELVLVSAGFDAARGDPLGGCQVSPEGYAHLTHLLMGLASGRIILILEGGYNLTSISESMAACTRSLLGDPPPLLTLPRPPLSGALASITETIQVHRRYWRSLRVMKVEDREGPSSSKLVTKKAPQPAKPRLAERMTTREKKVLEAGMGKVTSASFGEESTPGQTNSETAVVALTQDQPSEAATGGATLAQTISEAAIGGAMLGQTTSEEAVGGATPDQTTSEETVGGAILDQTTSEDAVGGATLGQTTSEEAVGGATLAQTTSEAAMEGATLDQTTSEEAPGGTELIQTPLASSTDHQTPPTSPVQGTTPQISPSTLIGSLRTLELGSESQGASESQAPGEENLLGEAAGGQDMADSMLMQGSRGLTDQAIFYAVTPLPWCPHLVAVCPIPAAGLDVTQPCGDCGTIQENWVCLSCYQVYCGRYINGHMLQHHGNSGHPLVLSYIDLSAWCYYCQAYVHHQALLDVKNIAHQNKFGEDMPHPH
Description: HDAC6 biochemical assay, AMC-labeled peptide substrate. The settings on record: HDAC6; read-out: HDAC Isoform IC50 (nM) 6. In short, it runs like this: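 Two-step fluorogenic read-out: enzyme deacetylates 50 μM RHKK(Ac)AMC for 1 h at 30° C in pH 8.0 Tris buffer with BSA and 1% DMSO, then developer cleavage gives signal at Ex 360/Em 460. Enzyme: 0.3 ng/ul recombinant full-length human HDAC6, GST-tagged, Sf9-expressed.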

T3 sequence (O15379 whole entry): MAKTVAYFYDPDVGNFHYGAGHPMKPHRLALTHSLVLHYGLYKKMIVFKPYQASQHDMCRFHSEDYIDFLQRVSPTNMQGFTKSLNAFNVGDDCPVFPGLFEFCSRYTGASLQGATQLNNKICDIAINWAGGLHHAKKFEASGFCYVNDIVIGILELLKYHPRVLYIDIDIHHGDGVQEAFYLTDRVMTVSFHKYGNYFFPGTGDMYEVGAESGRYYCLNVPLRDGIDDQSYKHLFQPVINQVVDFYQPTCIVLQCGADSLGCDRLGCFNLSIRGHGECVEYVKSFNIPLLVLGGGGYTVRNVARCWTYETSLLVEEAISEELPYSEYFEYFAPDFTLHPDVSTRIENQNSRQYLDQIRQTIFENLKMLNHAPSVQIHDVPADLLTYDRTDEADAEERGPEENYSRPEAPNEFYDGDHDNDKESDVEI
T3 sequence (Q9Y618 395-489 partner limits assumed): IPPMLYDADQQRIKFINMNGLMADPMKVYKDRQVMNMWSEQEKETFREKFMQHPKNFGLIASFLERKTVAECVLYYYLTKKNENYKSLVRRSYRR
T1 sequence (Q9UKV0 604-1066 isoform Q9UKV0-5): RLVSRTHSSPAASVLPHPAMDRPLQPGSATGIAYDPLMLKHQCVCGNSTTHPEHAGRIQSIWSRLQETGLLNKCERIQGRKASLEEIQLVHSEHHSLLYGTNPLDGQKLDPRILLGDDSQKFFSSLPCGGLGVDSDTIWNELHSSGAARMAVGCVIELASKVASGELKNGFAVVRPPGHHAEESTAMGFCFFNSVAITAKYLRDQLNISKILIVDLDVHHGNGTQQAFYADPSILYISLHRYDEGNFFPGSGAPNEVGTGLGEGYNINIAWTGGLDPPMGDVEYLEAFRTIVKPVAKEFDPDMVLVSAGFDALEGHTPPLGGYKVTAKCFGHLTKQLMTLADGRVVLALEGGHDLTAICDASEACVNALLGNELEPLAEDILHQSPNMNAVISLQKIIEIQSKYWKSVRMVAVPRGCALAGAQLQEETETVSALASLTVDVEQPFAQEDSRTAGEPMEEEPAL
T2 sequence (P56524 627-1084 limits assumed): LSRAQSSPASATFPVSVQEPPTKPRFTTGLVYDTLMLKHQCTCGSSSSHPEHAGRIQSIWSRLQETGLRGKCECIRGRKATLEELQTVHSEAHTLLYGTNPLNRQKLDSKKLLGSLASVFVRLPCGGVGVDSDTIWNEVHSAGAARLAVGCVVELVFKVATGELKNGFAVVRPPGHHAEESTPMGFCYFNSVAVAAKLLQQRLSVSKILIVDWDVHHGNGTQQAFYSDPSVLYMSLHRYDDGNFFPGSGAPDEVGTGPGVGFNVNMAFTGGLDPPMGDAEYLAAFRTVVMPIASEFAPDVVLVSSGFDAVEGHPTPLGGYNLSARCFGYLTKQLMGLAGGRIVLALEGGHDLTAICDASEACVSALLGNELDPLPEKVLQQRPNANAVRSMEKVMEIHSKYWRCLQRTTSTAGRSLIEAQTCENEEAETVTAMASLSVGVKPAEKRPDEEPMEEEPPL

As for `COc1cncc(N(Cc2ccc(-c3noc(C(F)(F)F)n3)s2)c2cnccn2)n1` [Example BQ, 6-Methoxy-N-(pyrazin-2-yl)-N-({5-[5-(trifluoromethyl)-1,2,4-oxadiazol-3-yl]thiophen-2-yl}methyl)pyrazin-2-amine], the IC50 was at most 10000 nM on Human HDAC9, at most 10000 nM on Human HDAC4, over 10000 nM in experiment [1] and at most 500 nM at Recombinant human HDAC6.

For `FC(F)(F)c1cncc(N(Cc2ccc(-c3noc(C(F)(F)F)n3)s2)c2cnccn2)n1` [Example BR, N-(Pyrazin-2-yl)-6-(trifluoromethyl)-N-({5-[5-(trifluoromethyl)-1,2,4-oxadiazol-3-yl]thiophen-2-yl}methyl)pyrazin-2-amine], the IC50 is at most 10000 nM on Human HDAC9, at most 10000 nM on Human HDAC4, over 10000 nM in experiment [1] and at most 10000 nM on Recombinant human HDAC6.

Regarding `NC(=O)c1ccc(N(Cc2ccc(-c3noc(C(F)(F)F)n3)s2)c2cnccn2)nn1` [Example DQ, 6-[(Pyrazin-2-yl)({5-[5-(trifluoromethyl)-1,2,4-oxadiazol-3-yl]thiophen-2-yl}methyl)amino]pyridazine-3-carboxamide], the IC50 at Human HDAC9 was at most 1000 nM; on Human HDAC4, at most 500 nM; in experiment [1], at most 10000 nM; at Recombinant human HDAC6 it was at most 500 nM.

Regarding `COC1CN(C(=O)c2ccc(N(Cc3ccc(-c4noc(C(F)(F)F)n4)s3)c3cnccn3)nn2)C1` [Example DR, 6-(3-Methoxyazetidine-1-carbonyl)-N-(pyrazin-2-yl)-N-({5-[5-(trifluoromethyl)-1,2,4-oxadiazol-3-yl]thiophen-2-yl}methyl)pyridazin-3-amine], the IC50 on Human HDAC9 was at most 500 nM; on Human HDAC4, at most 500 nM; in experiment [1] it was at most 10000 nM; on Recombinant human HDAC6 it was at most 500 nM.

For `O=C(c1ccc(N(Cc2ccc(-c3noc(C(F)(F)F)n3)s2)c2cnccn2)nn1)N1CCOCC1` [Example DS, 6-(Morpholine-4-carbonyl)-N-(pyrazin-2-yl)-N-({5-[5-(trifluoromethyl)-1,2,4-oxadiazol-3-yl]thiophen-2-yl}methyl)pyridazin-3-amine], the IC50 was at most 1000 nM on Human HDAC9, at most 500 nM on Human HDAC4, at most 10000 nM in experiment [1] and at most 500 nM on Recombinant human HDAC6.

As for `O=C(O)c1cnnc(N(Cc2ccc(-c3noc(C(F)(F)F)n3)s2)c2cnccn2)c1` [Example DW, 6-[(Pyrazin-2-yl)({5-[5-(trifluoromethyl)-1,2,4-oxadiazol-3-yl]thiophen-2-yl}methyl)amino]pyridazine-4-carboxylic acid], the half-maximal inhibitory concentration (IC50) is at most 10000 nM on Human HDAC9, at most 10000 nM on Human HDAC4, over 10000 nM in experiment [1] and at most 500 nM at Recombinant human HDAC6.

As to `NC(=O)c1cnnc(N(Cc2ccc(-c3noc(C(F)(F)F)n3)s2)c2cnccn2)c1` [Example DX, 6-[(Pyrazin-2-yl)({5-[5-(trifluoromethyl)-1,2,4-oxadiazol-3-yl]thiophen-2-yl}methyl)amino]pyridazine-4-carboxamide], the half-inhibitory concentration (IC50) at Human HDAC9 is at most 10000 nM; at Human HDAC4, at most 1000 nM; in experiment [1] it was at most 10000 nM; at Recombinant human HDAC6, at most 500 nM.

As to `CNC(=O)c1cnnc(N(Cc2ccc(-c3noc(C(F)(F)F)n3)s2)c2cnccn2)c1` [Example DY, N-Methyl-6-[(pyrazin-2-yl)({5-[5-(trifluoromethyl)-1,2,4-oxadiazol-3-yl]thiophen-2-yl}methyl)amino]pyridazine-4-carboxamide], the IC50 at Human HDAC9 was at most 10000 nM; at Human HDAC4 it was at most 1000 nM; in experiment [1], over 10000 nM; on Recombinant human HDAC6, at most 500 nM.

For the molecule `COC1CN(C(=O)c2cnnc(N(Cc3ccc(-c4noc(C(F)(F)F)n4)s3)c3cnccn3)c2)C1` [Example DZ, 5-(3-Methoxyazetidine-1-carbonyl)-N-(pyrazin-2-yl)-N-({5-[5-(trifluoromethyl)-1,2,4-oxadiazol-3-yl]thiophen-2-yl}methyl)pyridazin-3-amine], the 50% inhibitory concentration (IC50) on Human HDAC9 is at most 10000 nM; on Human HDAC4, at most 10000 nM; in experiment [1] it was over 10000 nM; on Recombinant human HDAC6 it was at most 500 nM.
